What all share (assay): KinomeScan profiling
What all share (assay type): binding

The target in one test is T1, FLT3(K663Q) (Homo sapiens, UniProt P36888, K663Q).
T1 sequence (P36888 27-993 K663Q): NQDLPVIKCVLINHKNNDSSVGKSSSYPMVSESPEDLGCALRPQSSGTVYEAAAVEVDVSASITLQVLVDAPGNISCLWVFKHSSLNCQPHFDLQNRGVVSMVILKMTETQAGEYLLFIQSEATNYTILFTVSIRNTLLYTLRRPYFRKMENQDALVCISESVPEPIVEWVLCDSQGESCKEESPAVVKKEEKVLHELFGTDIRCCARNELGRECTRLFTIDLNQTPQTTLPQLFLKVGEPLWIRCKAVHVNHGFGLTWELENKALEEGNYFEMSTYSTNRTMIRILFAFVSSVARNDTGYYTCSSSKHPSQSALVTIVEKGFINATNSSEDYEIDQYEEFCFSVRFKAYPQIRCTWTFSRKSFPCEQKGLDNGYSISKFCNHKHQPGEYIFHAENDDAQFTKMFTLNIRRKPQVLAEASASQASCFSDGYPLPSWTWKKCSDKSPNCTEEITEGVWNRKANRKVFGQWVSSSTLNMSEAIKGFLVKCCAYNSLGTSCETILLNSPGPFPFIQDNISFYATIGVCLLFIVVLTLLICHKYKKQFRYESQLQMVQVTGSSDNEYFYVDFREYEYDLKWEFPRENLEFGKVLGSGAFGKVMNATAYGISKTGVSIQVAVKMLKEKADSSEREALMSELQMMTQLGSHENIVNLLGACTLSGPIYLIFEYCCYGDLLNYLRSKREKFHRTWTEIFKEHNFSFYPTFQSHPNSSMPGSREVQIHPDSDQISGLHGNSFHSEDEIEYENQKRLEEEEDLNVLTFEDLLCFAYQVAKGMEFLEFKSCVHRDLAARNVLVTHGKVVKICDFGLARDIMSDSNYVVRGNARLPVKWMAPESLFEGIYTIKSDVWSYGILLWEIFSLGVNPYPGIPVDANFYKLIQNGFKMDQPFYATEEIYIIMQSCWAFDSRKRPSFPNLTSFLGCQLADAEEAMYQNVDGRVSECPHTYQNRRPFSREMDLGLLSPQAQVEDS
As to conditions: read-out: % control. The essentials:
(§1)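 Luminescence (RLU) was converted to percent of control, with DMSO set as 100% and a reference compound as 0%. Test compounds were run at 1 μM against 468 kinases. Kinases showing below 35% of control were scored as bound.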

In the next test the target is T2, CDKL5 (Homo sapiens, UniProt O76039).
T2 sequence (O76039 1-960): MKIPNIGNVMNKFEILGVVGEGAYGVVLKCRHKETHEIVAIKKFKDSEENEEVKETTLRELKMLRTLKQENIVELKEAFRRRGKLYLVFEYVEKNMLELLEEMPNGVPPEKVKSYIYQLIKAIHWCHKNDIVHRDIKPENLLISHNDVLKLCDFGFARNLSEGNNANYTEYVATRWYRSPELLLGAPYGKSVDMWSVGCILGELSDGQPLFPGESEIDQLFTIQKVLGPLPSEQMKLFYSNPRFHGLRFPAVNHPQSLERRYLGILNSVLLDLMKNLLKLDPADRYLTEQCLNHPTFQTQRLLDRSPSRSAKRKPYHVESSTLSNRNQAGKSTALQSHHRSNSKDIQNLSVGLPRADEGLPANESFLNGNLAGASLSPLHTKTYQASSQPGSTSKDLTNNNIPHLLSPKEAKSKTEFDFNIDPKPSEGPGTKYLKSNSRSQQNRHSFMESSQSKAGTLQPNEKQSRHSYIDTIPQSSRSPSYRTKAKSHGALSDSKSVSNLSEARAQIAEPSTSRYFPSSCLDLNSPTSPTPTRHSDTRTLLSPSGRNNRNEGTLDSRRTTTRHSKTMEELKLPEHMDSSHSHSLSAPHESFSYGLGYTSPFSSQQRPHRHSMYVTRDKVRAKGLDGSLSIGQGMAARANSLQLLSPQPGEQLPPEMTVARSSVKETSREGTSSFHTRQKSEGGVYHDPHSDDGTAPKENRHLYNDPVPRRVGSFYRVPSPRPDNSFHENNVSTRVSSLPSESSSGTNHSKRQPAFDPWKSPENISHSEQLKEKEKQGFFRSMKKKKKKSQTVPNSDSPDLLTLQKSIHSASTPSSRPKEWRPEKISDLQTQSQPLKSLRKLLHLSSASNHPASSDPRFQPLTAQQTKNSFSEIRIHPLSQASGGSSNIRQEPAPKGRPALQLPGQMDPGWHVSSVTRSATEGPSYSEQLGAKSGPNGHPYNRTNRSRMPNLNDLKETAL
The note with it: CDKL5, 1 μM; read-out: % control. The essentials:
as §1

The target in a further test is T3, PIM1 (Homo sapiens, UniProt P11309).
T3 construct: purchased KinomeScan® (panel service)
As to conditions: PIM1, 1 μM; read-out: % control. A digest of the protocol: as §1

In a further test the target is MAP3K4 (Homo sapiens, UniProt Q9Y6R4). As to conditions: MAP3K4, 1 μM; read-out: % control. The essentials:
as §1

A further test deals with T4, ITK (Homo sapiens, UniProt Q08881).
T4 construct: purchased KinomeScan®
T4 sequence (Q08881 1-620): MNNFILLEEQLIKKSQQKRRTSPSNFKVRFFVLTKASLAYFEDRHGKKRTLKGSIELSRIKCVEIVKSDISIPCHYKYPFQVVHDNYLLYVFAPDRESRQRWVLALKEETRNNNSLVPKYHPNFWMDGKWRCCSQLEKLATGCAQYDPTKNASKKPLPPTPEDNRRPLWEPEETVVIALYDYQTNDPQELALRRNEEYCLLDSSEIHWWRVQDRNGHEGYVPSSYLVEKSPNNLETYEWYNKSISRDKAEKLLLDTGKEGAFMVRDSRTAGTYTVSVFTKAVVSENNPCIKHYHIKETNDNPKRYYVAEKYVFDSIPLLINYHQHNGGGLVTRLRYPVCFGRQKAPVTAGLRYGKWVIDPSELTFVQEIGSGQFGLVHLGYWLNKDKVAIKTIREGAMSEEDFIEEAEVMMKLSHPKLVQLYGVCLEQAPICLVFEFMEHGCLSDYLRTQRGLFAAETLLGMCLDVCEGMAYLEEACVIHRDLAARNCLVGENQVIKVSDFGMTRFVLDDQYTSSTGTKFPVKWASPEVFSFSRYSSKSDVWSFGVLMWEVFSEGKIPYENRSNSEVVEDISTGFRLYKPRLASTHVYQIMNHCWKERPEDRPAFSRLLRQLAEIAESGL
As to conditions: read-out: % control. A digest of the protocol:
as §1

T3 sequence (P11309 whole entry): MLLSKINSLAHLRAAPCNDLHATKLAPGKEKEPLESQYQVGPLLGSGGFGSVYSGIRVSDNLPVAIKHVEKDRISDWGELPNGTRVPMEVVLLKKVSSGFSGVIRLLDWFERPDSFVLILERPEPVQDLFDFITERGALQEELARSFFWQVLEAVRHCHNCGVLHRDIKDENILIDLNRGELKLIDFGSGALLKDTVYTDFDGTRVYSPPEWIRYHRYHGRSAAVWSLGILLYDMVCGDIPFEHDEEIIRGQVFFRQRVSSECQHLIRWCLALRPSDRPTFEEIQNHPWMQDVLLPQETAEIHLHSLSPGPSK
MAP3K4, sequence (Q9Y6R4 whole entry): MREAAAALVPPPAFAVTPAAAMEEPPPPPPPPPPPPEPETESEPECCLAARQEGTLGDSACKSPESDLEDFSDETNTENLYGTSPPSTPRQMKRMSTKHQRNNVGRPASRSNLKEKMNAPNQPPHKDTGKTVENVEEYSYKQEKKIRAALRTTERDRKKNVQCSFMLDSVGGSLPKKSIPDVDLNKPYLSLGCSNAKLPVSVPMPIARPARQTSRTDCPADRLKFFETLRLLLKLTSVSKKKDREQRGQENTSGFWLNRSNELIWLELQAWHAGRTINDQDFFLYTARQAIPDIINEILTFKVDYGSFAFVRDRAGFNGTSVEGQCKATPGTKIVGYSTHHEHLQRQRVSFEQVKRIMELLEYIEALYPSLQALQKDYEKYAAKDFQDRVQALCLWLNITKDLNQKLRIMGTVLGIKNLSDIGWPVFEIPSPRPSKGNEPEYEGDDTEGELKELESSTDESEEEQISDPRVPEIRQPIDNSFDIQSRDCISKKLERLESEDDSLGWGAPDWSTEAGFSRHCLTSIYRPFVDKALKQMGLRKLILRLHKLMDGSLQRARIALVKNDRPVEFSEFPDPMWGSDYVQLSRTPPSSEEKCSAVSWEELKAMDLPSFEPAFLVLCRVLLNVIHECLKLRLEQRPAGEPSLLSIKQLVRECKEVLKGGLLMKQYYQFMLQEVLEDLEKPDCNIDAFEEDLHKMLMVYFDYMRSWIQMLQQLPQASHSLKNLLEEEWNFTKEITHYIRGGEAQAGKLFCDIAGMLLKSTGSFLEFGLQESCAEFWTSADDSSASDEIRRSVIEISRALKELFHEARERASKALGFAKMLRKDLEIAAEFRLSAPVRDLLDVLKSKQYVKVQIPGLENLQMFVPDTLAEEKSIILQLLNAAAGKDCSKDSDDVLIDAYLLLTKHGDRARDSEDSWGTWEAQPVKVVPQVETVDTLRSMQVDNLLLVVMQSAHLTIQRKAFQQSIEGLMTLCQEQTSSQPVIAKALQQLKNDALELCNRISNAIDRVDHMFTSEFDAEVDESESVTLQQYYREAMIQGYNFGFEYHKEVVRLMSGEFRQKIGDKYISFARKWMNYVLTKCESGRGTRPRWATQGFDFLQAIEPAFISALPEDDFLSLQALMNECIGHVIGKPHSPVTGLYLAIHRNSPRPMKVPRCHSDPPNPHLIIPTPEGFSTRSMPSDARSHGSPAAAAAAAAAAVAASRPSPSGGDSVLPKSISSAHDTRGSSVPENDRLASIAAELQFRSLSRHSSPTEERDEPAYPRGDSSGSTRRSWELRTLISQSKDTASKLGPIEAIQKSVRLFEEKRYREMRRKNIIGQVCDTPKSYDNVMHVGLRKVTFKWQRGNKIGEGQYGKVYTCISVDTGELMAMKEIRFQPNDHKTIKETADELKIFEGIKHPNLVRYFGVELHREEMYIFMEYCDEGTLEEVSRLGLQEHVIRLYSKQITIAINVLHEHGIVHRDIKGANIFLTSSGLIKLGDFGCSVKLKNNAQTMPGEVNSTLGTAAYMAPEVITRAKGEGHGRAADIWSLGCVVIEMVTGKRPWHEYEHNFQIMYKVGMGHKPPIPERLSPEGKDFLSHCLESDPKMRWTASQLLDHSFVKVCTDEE

With `CNc1c(-c2ccc(C(=O)N3CCC(N4CCOCC4)CC3)cc2)cnc2[nH]cc(Cl)c12` [Compound 96, (4-(3-chloro-4-(methylamino)-1H-pyrrolo[2,3-b]pyridin-5-yl)phenyl)(4-morpholinopiperidin-1-yl)methanone], the remaining binding at 1 µM at FLT3(K663Q) is 15%; on CDKL5, 92%; on PIM1, 100%; at MAP3K4 it was 68%; at ITK it was 93%.

`O=C(c1ccc(-c2cnc3[nH]cc(Cl)c3c2NC2CCCC2)cc1)N1CCC(N2CCOCC2)CC1` [Compound 101, (4-(3-chloro-4-(cyclopentylamino)-1H-pyrrolo[2,3-b]pyridin-5-yl)phenyl)(4-morpholinopiperidin-1-yl)methanone]: the remaining binding at 1 µM is 28% at FLT3(K663Q); 70% at CDKL5; 95% at PIM1; 71% on MAP3K4; 90% on ITK.

Regarding `CNc1c(-c2cnn([C@H]3CCN(C(C)=O)C[C@@H]3F)c2)cnc2[nH]cc(Cl)c12` [Compound 77, 1-((3S,4S)-4-(4-(3-chloro-4-(methylamino)-1H-pyrrolo[2,3-b]pyridin-5-yl)-1H-pyrazol-1-yl)-3-fluoropiperidin-1-yl)ethan-1-one], the remaining binding at 1 µM on FLT3(K663Q) was 15%; on CDKL5, 94%; on PIM1, 95%; on MAP3K4, 91%; at ITK it was 71%.
